# Measured values as given in article PMC9949657 (PLOS ONE, 2023).
# Experiments:
# [1] = tested on: rat collagen-induced arthritis (CIA) model; assay: Rat CIA model, hind paw volume; assay type: in vivo; set-up: unit not given beside the values; details: Prednisolone 1 mg/kg oral once daily
# Method: For the rat CIA model, experimental arthritis was induced and volumes of both hind paws were measured as previously described.
# [2] = tested on: mouse collagen-induced arthritis (CIA) model; assay: Mouse CIA model, arthritis score (15-day treatment); assay type: in vivo; details: Prednisolone 3 mg/kg oral once daily
# Method: (§1) For the mouse CIA model, male DBA/1JNCrlj mice (7 weeks old) were injected with complete Freund’s adjuvant (CFA) (BD Biosciences) containing 2 mg/mL of bovine type II collagen at a site on the back (each 0.1 mL) and were boosted 21 days later in a similar manner. Arthritis scores were determined as previously reported.
# [3] = tested on: mouse collagen-induced arthritis (CIA) model; assay: Histopathological evaluation in the mouse CIA model; assay type: in vivo; details: Prednisolone 3 mg/kg oral, 15 days
# Method: as §1
# On the day after the final administration, the four limbs of each mouse were harvested and decalcified in […]. The specimens were then embedded in paraffin blocks, cut into sections, stained with hematoxylin and eosin, and randomly selected for microscopic examination. Histopathological assessments were performed as described previously. This experiment was carried out in the laboratory of the BoZo Research Center Inc. (Ibaraki, Japan).
# [4] = tested on: mouse collagen-induced arthritis (CIA) model; assay: Mouse CIA model, arthritis score of hind paws (21-day treatment); assay type: in vivo; details: Prednisolone 3 mg/kg oral once daily
# Method: as §1
# [5] = tested on: mouse collagen-induced arthritis (CIA) model; assay: Micro-CT imaging in the CIA model (BMD); assay type: in vivo; details: for BMD: Prednisolone 3 mg/kg oral once daily
# Method: as §1
# The bone morphology of CIA mice was evaluated via micro-CT using Cosmo Scan (Rigaku, Tokyo, Japan). Hind paws of the mice were scanned using the following scanning conditions: 90 kV; 88 μA; field of view, 25 mm; 2 min. The BMD was calculated using the Analyze version 11.0 software (Biomedical Imaging Resource, Mayo Clinic, Rochester, MN). The bone was determined to have a BMD value ≥480 mg/cm^3, and the region of interest for calculating the BMD included the talus and cuboid. BMD was calibrated using a QRM-MicroCT-HA phantom (Quality Assurance in Radiology and Medicine, Moehrendorg, Germany) that was scanned on each day when micro-CT of animals was performed. Calibration was performed via scanning phantoms with densities of 0, 50, 200, 800, and 1200 mg HA/cm^3, and data analysis was performed using the Analyze11.0 Bone Mineral Density Analysis procedure.
# [6] = tested on: ovariectomized cynomolgus monkeys; set-up: method as in PMID 21497676; details: cited from earlier work
# patients with RA = tested on: patients with RA; set-up: method as in PMID 31036625; details: compared with placebo, clinical trials for RA; cited from earlier work
molecule,measurement,setting,value
"C[C@]12C=CC(=O)C=C1CC[C@@H]1[C@@H]2[C@@H](O)C[C@@]2(C)[C@H]1CC[C@]2(O)C(=O)CO [Prednisolone, prednisolone]",Hind paws volume,[1]; day 0,2.1
same,Hind paws volume,[1]; day 4,2.12
same,Hind paws volume,[1]; day 7,2.09
same,Hind paws volume,[1]; day 11,2.16
same,Hind paws volume,[1]; day 14,2.18
same,Hind paws volume,[1]; day 18,2.25
same,Hind paws volume,[1]; day 21,2.37
same,Arthritis score,[2]; day 1,6.63
same,Arthritis score,[2]; day 4,7.88
same,Arthritis score,[2]; day 8,8.38
same,Arthritis score,[2]; day 11,7.88
same,Arthritis score,[2]; day 15,2.88
same,"Histological score, Bone damage",[3],3.50
same,"Histological score, Cartilage damage",[3],4.75
same,"Histological score, Inflammation",[3],5.25
same,"Histological score, Pannus",[3],4.13
same,Arthritis score of hind paws,[4]; day 1,7.33
same,Arthritis score of hind paws,[4]; day 8,6.58
same,Arthritis score of hind paws,[4]; day 14,5.75
same,Arthritis score of hind paws,[4]; day 22,4.75
same,BMD,[5]; day 1,957.82 mg/mL
same,BMD,[5]; day 8,961.86 mg/mL
same,BMD,[5]; day 14,984.25 mg/mL
same,BMD,[5]; day 22,1000.83 mg/mL
same,"decline in BMD, effect compared with vehicle","[5]; Prednisolone 3 mg/kg/day, 21 days",did not exhibit significant therapeutic effects
denosumab: anti-human RANKL monoclonal antibody,BMD and bone strength,[6],improved
same,bone erosion progression,patients with RA,inhibited
